Patent US20260258032A1, “TYROSINE KINASE 2 INHIBITORS AND USES THEREOF” (BIOGEN MA INC., priority 2022, published 2026)
Counter-ions that a name gives are not always drawn.

What was measured:
[1] = test system: Tyk2 kinase activity on STAT4; assay: pSTAT4 cell assay (MSD, NK92 cells); assay type: cell-based; settings: compounds 1 hr
In short: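 IC50 values derive from 4-parameter logistic fits of normalized percent activity against log compound concentration. Phospho-STAT was measured by MSD with anti-STAT4 antibodies after 15 min of 30 ng/mL IL2 in serum-starved NK92 cells pretreated 1 hr with compound.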

JH2 domain of human Tyk2 = molecular target: T1, JH2 domain of human Tyk2 (Homo sapiens, UniProt P29597); assay: JH2 biochemical assay (TR-FRET probe displacement); assay type: binding
T1 construct: 10×His-tagged TYK2 JH2 domain (amino acid 575-876)
T1 sequence (P29597 575-876): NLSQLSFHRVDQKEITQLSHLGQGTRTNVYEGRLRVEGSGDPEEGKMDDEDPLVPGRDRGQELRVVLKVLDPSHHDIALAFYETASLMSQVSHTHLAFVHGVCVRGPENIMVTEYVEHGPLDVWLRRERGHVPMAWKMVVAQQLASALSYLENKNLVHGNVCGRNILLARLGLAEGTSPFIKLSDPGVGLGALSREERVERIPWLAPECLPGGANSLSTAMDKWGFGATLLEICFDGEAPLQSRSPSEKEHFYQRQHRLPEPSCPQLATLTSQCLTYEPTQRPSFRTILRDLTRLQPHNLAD
In short: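 10×His-tagged human TYK2 JH2 (aa 575-876, 2 nM) incubated 60 min with 2 nM fluorescent probe, 0.1 nM Tb anti-His antibody and compound (10-point 3-fold series from […] top). TR-FRET 520/495 nm ratio, falling with probe displacement, normalized and fitted to a 4-parameter logistic for IC50.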

[2] = TR-FRET probe displacement, JH2 domain of human Tyk2

Row | SMILES | IC50 ([1]; then stimulated 15 minutes) [nM] | IC50 (JH2 domain of human Tyk2; [2]) [nM] | IC50 ([1]; stimulated 15 minutes) [nM] | IC50 (JH2 domain of human Tyk2; JH2 biochemical assay) [nM]
1 | CC(=O)Nc1cc2c(cn1)C1(CC1)CN2c1cc(C(C)(C)O)nc(C(C)(F)F)n1 [Example 399, N-(1′-(2-(1,1-difluoroethyl)-6-(2-hydroxypropan-2-yl)pyrimidin-4-yl)-1′,2′-dihydrospiro[cyclopropane-1,3′-pyrrolo[3,2-c]pyridin]-6′-yl)acetamide] | 10 to 100 | ≤ 10 | – | –
2 | CC(=O)Nc1cc2c(cn1)C1(CC1)CN2c1cc(OC2COC2)nc(C(C)(F)F)n1 [Example 141, N-(1′-(2-(1,1-difluoroethyl)-6-(oxetan-3-yloxy)pyrimidin-4-yl)-1′,2′-dihydrospiro[cyclopropane-1,3′-pyrrolo[3,2-c]pyridin]-6′-yl)acetamide] | – | – | 100 to 1000 | ≤ 10
3 | CCn1cc(-c2nc(C)cc(N3CC4(CC4)c4cnc(NC(C)=O)cc43)n2)cn1 [Example 247, N-(1′-(2-(1-ethyl-1H-pyrazol-4-yl)-6-methylpyrimidin-4-yl)-1′,2′-dihydrospiro[cyclopropane-1,3′-pyrrolo[3,2-c]pyridin]-6′-yl)acetamide] | – | – | 100 to 1000 | ≤ 10
4 | CC(=O)Nc1cc2c(cn1)C1(CC1)CN2c1cc(N(C)C)nc(C(C)(F)F)n1 [Example 20, N-(1′-(2-(1,1-difluoroethyl)-6-(dimethylamino)pyrimidin-4-yl)-1′,2′-dihydrospiro[cyclopropane-1,3′-pyrrolo[3,2-c]pyridin]-6′-yl)acetamide] | – | – | 100 to 1000 | ≤ 10
5 | CC(=O)Nc1cc2c(cn1)C1(CC1)CN2c1cc(-c2ccn(C)n2)nc(C(C)(F)F)n1 [Example 241, N-(1′-(2-(1,1-difluoroethyl)-6-(1-methyl-1H-pyrazol-3-yl)pyrimidin-4-yl)-1′,2′-dihydrospiro[cyclopropane-1,3′-pyrrolo[3,2-c]pyridin]-6′-yl)acetamide] | – | – | 10 to 100 | ≤ 10
6 | CC(=O)Nc1cc2c(cn1)C1(CC1)CN2c1cc(C)cc(N2CCN(CCO)CC2)n1 [Example 406, N-(1′-(6-(4-(2-hydroxyethyl)piperazin-1-yl)-4-methylpyridin-2-yl)-1′,2′-dihydrospiro[cyclopropane-1,3′-pyrrolo[3,2-c]pyridin]-6′-yl)acetamide] | ≥ 1000 | 100 to 1000 | – | –
7 | CC(=O)Nc1cc2c(cn1)C1(CC1)CN2c1cc(C)cc(C(F)(F)CF)n1 [Example 316, N-(1′-(4-methyl-6-(1,1,2-trifluoroethyl)pyridin-2-yl)-1′,2′-dihydrospiro[cyclopropane-1,3′-pyrrolo[3,2-c]pyridin]-6′-yl)acetamide trifluoroacetate] | – | – | 10 to 100 | ≤ 10
8 | CC(=O)Nc1cc2c(cn1)C1(CC1)CN2c1cc(C)cc(N2CCOCC2)n1 [Example 206, N-(1′-(4-methyl-6-morpholinopyridin-2-yl)-1′,2′-dihydrospiro[cyclopropane-1,3′-pyrrolo[3,2-c]pyridin]-6′-yl)acetamide] | – | – | 100 to 1000 | 10 to 100
9 | CC(=O)Nc1cc2c(cn1)C1(CC1)CN2c1cc(NC[C@@H]2CCO2)nc(C(C)(F)F)n1 [Example 163, (S)-N-(1′-(2-(1,1-difluoroethyl)-6-((oxetan-2-ylmethyl)amino)pyrimidin-4-yl)-1′,2′-dihydrospiro[cyclopropane-1,3′-pyrrolo[3,2-c]pyridin]-6′-yl)acetamide] | – | – | 10 to 100 | ≤ 10
10 | CC(=O)Nc1cc2c(cn1)C1(CC1)CN2c1cc(C)nc(C2CCCOC2)n1 (stereo not shown) [Example 70, N-(1′-(6-methyl-2-(tetrahydro-2H-pyran-3-yl)pyrimidin-4-yl)-1′,2′-dihydrospiro[cyclopropane-1,3′-pyrrolo[3,2-c]pyridin]-6′-yl)acetamide] | – | – | 100 to 1000 | ≤ 10
11 | CC(=O)Nc1cc2c(cn1)C1(CC1)CN2c1cc(C)nc(N2CCC(C)(C#N)C2)n1 (stereo not shown) [Example 409, N-(1′-(2-(3-cyano-3-methylpyrrolidin-1-yl)-6-methylpyrimidin-4-yl)-1′,2′-dihydrospiro[cyclopropane-1,3′-pyrrolo[3,2-c]pyridin]-6′-yl)acetamide] | ≥ 1000 | 10 to 100 | – | –
12 | CCCc1nc(C)cc(N2CC3(CC3)c3cnc(NC(C)=O)cc32)n1 [Example 65, N-(1′-(6-methyl-2-propylpyrimidin-4-yl)-1′,2′-dihydrospiro[cyclopropane-1,3′-pyrrolo[3,2-c]pyridin]-6′-yl)acetamide] | – | – | 100 to 1000 | 10 to 100
13 | CC(=O)Nc1cc2c(cn1)C1(CC1)CN2c1cc(C(C)F)nc(C(C)(F)F)n1 (stereo not shown) [Example 400, N-(1′-(2-(1,1-difluoroethyl)-6-(1-fluoroethyl)pyrimidin-4-yl)-1′,2′-dihydrospiro[cyclopropane-1,3′-pyrrolo[3,2-c]pyridin]-6′-yl)acetamide] | 10 to 100 | ≤ 10 | – | –
14 | CC(=O)Nc1cc2c(cn1)C1(CC1)CN2c1cc(C)nc(N2CC[C@H](C#N)C2)n1 [Example 408, (S)-N-(1′-(2-(3-cyanopyrrolidin-1-yl)-6-methylpyrimidin-4-yl)-1′,2′-dihydrospiro[cyclopropane-1,3′-pyrrolo[3,2-c]pyridin]-6′-yl)acetamide] | 100 to 1000 | 10 to 100 | – | –
15 | CC(=O)Nc1cc2c(cn1)C1(CC1)CN2c1cc(C)cc(C23COC(C)(C2)C3)n1 [Example 306, N-(1′-(4-methyl-6-(1-methyl-2-oxabicyclo[2.1.1]hexan-4-yl)pyridin-2-yl)-1′,2′-dihydrospiro[cyclopropane-1,3′-pyrrolo[3,2-c]pyridin]-6′-yl)acetamide] | – | – | ≥ 1000 | 10 to 100
16 | CC(=O)Nc1cc2c(cn1)C1(CC1)CN2c1cc(C)cc(N2CC3CCNC3C2)n1 (stereo not shown) [Example 210, N-(1′-(6-(hexahydropyrrolo[3,4-b]pyrrol-5(1H)-yl)-4-methylpyridin-2-yl)-1′,2′-dihydrospiro[cyclopropane-1,3′-pyrrolo[3,2-c]pyridin]-6′-yl)acetamide trifluoroacetate] | – | – | ≥ 1000 | 100 to 1000
17 | CC(=O)Nc1cc2c(cn1)C1(CC1)CN2c1cc(C)nc(N2CCC(O)CC2)n1 [Example 232, N-(1′-(2-(4-hydroxypiperidin-1-yl)-6-methylpyrimidin-4-yl)-1′,2′-dihydrospiro[cyclopropane-1,3′-pyrrolo[3,2-c]pyridin]-6′-yl)acetamide] | – | – | ≥ 1000 | 100 to 1000
18 | CC(=O)Nc1cc2c(cn1)C1(CC1)CN2c1cc(C)cc(OC2CCC(O)C2)n1 (stereo not shown) [Example 337, N-(1′-(6-((3-hydroxycyclopentyl)oxy)-4-methylpyridin-2-yl)-1′,2′-dihydrospiro[cyclopropane-1,3′-pyrrolo[3,2-c]pyridin]-6′-yl)acetamide trifluoroacetate] | – | – | 100 to 1000 | 10 to 100
19 | CC(=O)Nc1cc2c(cn1)C1(CC1)CN2c1cc(NC2CCOCC2)nc(C(C)(F)F)n1 [Example 155, N-(1′-(2-(1,1-difluoroethyl)-6-((tetrahydro-2H-pyran-4-yl)amino)pyrimidin-4-yl)-1′,2′-dihydrospiro[cyclopropane-1,3′-pyrrolo[3,2-c]pyridin]-6′-yl)acetamide] | – | – | 10 to 100 | ≤ 10
20 | CC(=O)Nc1cc2c(cn1)C1(CC1)CN2c1cc(C)nc(-c2cnn(C3CC3)c2)n1 [Example 250, N-(1′-(2-(1-cyclopropyl-1H-pyrazol-4-yl)-6-methylpyrimidin-4-yl)-1′,2′-dihydrospiro[cyclopropane-1,3′-pyrrolo[3,2-c]pyridin]-6′-yl)acetamide] | – | – | ≥ 1000 | 10 to 100
21 | CC(=O)Nc1cc2c(cn1)C1(CC1)CN2c1cc(C)cc(OC2CC(C)C2)n1 (stereo not shown) [Example 347, N-(1′-(4-methyl-6-(3-methylcyclobutoxy)pyridin-2-yl)-1′,2′-dihydrospiro[cyclopropane-1,3′-pyrrolo[3,2-c]pyridin]-6′-yl)acetamide trifluoroacetate] | – | – | ≥ 1000 | 100 to 1000
22 | CC(=O)Nc1cc2c(cn1)C1(CC1)CN2c1cc(C)nc(-c2ccn(C)n2)n1 [Example 244, N-(1′-(6-methyl-2-(1-methyl-1H-pyrazol-3-yl)pyrimidin-4-yl)-1′,2′-dihydrospiro[cyclopropane-1,3′-pyrrolo[3,2-c]pyridin]-6′-yl)acetamide trifluoroacetate] | – | – | ≥ 1000 | 10 to 100
23 | CC(=O)Nc1cc2c(cn1)C1(CC1)CN2c1cc(C)cc(OC2CCC(F)C2)n1 (stereo not shown) [Example 353, N-(1′-(6-((3-fluorocyclopentyl)oxy)-4-methylpyridin-2-yl)-1′,2′-dihydrospiro[cyclopropane-1,3′-pyrrolo[3,2-c]pyridin]-6′-yl)acetamide trifluoroacetate] | – | – | ≥ 1000 | 100 to 1000
24 | CC(=O)Nc1cc2c(cn1)C1(CC1)CN2c1cc(NCCC(C)F)nc(C(C)(F)F)n1 (stereo not shown) [Example 170, N-(1′-(2-(1,1-difluoroethyl)-6-((3-fluorobutyl)amino)pyrimidin-4-yl)-1′,2′-dihydrospiro[cyclopropane-1,3′-pyrrolo[3,2-c]pyridin]-6′-yl)acetamide trifluoroacetate] | – | – | 10 to 100 | ≤ 10
25 | Cc1cc(N2CC3(CC3)c3cnc(NC(=O)N(C)C)cc32)nc(C(C)(F)F)n1 [Example 278, 3-(1′-(2-(1,1-difluoroethyl)-6-methylpyrimidin-4-yl)-1′,2′-dihydrospiro[cyclopropane-1,3′-pyrrolo[3,2-c]pyridin]-6′-yl)-1,1-dimethylurea] | – | – | ≥ 1000 | 100 to 1000
26 | CSc1nc(C)cc(N2CC3(CC3)c3cnc(NC(C)=O)cc32)n1 [Example 29, N-(1′-(6-methyl-2-(methylthio)pyrimidin-4-yl)-1′,2′-dihydrospiro[cyclopropane-1,3′-pyrrolo[3,2-c]pyridin]-6′-yl)acetamide] | – | – | 100 to 1000 | ≤ 10
